Publication PMC10683472, “Deep Learning-Driven Library Design for the De Novo Discovery of Bioactive Thiopeptides” (ACS Central Science, 2023)
Read-outs that look alike come from different tables or passages of the source. Where a SMILES comes first, the peptide text is derived from it. Where no end group is shown, it is not given here. pyridine‑bisazole = not defined here

T1: IRAK4 (Homo sapiens, UniProt Q9NWZ3)
T1 sequence (Q9NWZ3 1-460): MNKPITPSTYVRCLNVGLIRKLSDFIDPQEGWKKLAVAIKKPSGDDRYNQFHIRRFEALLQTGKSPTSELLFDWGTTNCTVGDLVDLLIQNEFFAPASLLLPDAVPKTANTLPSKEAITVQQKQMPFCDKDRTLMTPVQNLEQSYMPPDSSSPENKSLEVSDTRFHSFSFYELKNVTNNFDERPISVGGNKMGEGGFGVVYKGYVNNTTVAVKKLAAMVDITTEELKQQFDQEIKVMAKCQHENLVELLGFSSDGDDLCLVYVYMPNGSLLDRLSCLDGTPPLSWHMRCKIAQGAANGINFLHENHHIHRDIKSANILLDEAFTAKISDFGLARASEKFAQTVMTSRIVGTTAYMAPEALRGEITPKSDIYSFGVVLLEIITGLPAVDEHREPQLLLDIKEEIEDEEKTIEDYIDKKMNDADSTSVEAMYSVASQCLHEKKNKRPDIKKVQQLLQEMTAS

T2: Biotinylated IRAK4 (kinase domain, amino acids 1-460; NP_057207.2) (Homo sapiens, UniProt Q9NWZ3)
T2 construct: acids 1-460; NP_057207.2) was purchased from Carna Biosciences; purchased Carna Biosciences (Kobe, Japan)
T2 sequence (Q9NWZ3 1-460): T1 sequence (Q9NWZ3 1-460)

T3: interleukin-1 receptor-associated kinase 4 (UniProt Q9NWZ3 1-460)
T3 sequence (looked up): T1 sequence (Q9NWZ3 1-460)

T4: toll-like receptor 10, extracellular domain (UniProt Q9BXR5 20-576)
T4 construct: toll-like receptor 10 (TLR10), extracellular domain; The extracellular domain is stated for the SPR experiment; also called TLR10; TLR10 cell surface receptor
T4 sequence (looked up): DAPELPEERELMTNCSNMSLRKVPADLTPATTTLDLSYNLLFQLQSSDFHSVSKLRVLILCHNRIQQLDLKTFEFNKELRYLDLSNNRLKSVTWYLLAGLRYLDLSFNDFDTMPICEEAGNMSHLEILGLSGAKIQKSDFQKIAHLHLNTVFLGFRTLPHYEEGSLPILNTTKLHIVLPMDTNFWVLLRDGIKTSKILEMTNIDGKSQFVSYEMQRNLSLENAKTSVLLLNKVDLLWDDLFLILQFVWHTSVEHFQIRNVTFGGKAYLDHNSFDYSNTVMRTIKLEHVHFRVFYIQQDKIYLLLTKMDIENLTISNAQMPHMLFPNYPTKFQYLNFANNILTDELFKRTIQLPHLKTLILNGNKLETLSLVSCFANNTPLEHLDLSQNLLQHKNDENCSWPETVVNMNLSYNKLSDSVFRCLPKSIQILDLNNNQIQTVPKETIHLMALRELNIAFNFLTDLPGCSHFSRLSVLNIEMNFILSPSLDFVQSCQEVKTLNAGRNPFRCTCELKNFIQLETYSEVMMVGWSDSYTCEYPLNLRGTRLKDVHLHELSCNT

B1: thiopeptide IR5 (synthetic) (peptide)
chain: SWSMLFKRRIYKSCSC
modifications: bridge (positions not given here) via pyridine‑bisazole; reading uncertain; also: macrocyclic lactazole-like thiopeptide with pyridine-bisazole moiety, places not given here, dehydroamino acids, places not given here
B2: thiopeptide TL20 (synthetic) (peptide)
chain: SWSLELSRVNVVIHSCSC
modifications: bridge (positions not given here) via pyridine‑bisazole; reading uncertain; also: macrocyclic lactazole-like thiopeptide with pyridine-bisazole moiety, places not given here, dehydroamino acids, places not given here

Key:
[1] = target: T1, IRAK4; assay: Single-round mRNA display binding assay (qPCR), IRAK4; parameters: acids 1-460; NP_057207.2) was purchased from Carna Biosciences; purchased Carna Biosciences (Kobe, Japan); conditions: ratio of cDNA recoveries (qPCR), IRAK4 pulldown over beads only, single-round selection
[2] = target: T2, Biotinylated IRAK4 (kinase domain, amino acids 1-460; NP_057207.2); assay: Surface plasmon resonance binding to IRAK4
Text: Reagents were purchased from Nacalai Tesque, Wako Pure Chemical Industries, Sigma-Aldrich Japan, or TCI Chemicals and were used as received. Biotinylated IRAK4 (kinase domain, amino acids 1-460; NP_057207.2) was purchased from Carna Biosciences (Kobe, Japan). Recombinant human TLR10 Fc Chimera protein (extracellular domain, amino acid 20-576; Q9BXR5) was purchased from R&D system (#6619-TR-050). Anti-HA magnetic beads were from Pierce Thermo Fisher Scientific (#88836). Magnetic beads with immobilized streptavidin were from Invitrogen (Dynabeads Streptavidin C1, # 65001). Magnetic beads with immobilized streptavidin were from Invitrogen (Dynabeads Streptavidin M280, #11206D).
Protein purification and synthesis of Streptomyces lactacystinaeus tRNAGlu were done as previously described.1–3 Protein concentration measurements were carried out on a Nanodrop 2000c spectrophotometer (Thermo Scientific) equipped with a 5 mm pathlength quartz cuvette using extinction coefficient values calculated with ExPASy ProtParam tool (https://web.expasy.org/protparam).
Biochemical measurements (sections 2.10 – 2.14) were performed in triplicate or more. Most experiments were reproduced to an analogous outcome at least once. In the cases where the determination of biophysical parameters involved cell assay (CP50 and IC50), reported are standard errors of the fit; otherwise, error bars are standard deviations.
RNA extracted from the gel with 300 mM NaCl were collected by ethanol precipitation followed by centrifugation (15300 g for 15 min) and dissolved in water for storage. tRNAini was aminoacylated with eFx using biotin-Phe-CME as a substrate. tRNAini (25 µM) and eFx (25 µM) were incubated with biotin-Phe-CME (5 mM) in HEPES-KOH buffer (50 mM; pH 7.5) containing 600 mM MgCl2 on ice for 2 h. The reactions were stopped with the addition of 300 mM NaOAc (pH 5.2), and precipitated with ethanol. Precipitated RNA was recovered by centrifugation (15300 g for 15 min). The pellet was washed with 70% ethanol in water (v/v) containing 100 mM NaOAc (pH 5.2) and used in translation.
2.10. Surface plasmon resonance
Binding affinities between the thiopeptides and IRAK4/TLR10 were measured with a Biacore 8K instrument (GE Healthcare) at 25 °C. The assay buffer for IRAK4 binding analysis contained 50 mM Tris (pH 7.5), 150 mM NaCl, 10 mM MgCl2, 0.05% (v/v) tween-20 and 0.1% (v/v) DMSO. The […]
Biotinylated IRAK4 was immobilized on a Biacore CAP chip (GE Healthcare) to a surface density […]
step was allowed to proceed for 480 s. Kinetic parameters and affinities of the interaction were […]
provided by the manufacturer. The interaction sensorgrams were measured as single -cycle […]
Kinetic parameters and affinities of the
Evaluation Software v.3.0 (GE Healthcare).

[3] = tested on: lipopolysaccharide-induced NF-κB signaling in THP1-XBlue cells; assay: NF-kB signaling pathway inhibition assay (SEAP reporter, LPS-stimulated); assay type: cell-based; conditions: THP1-XBlue monocytes, 6 h pre-treatment, LPS-EK 30 ng/mL, SEAP read 20 h after induction
Experimental: (§1) 2.13. NF-kB signaling pathway inhibition assay
(§2) THP-1 Cellular Assay. THP1-XBlue cells containing an NF-kB-inducible secreted embryonic alkaline phosphatase (SEAP) reporter gene (InvivoGen) were seeded to 96-well assay plates (10^5 cells/well) with RPMI 1640 culture medium containing 10% fetal calf serum. The cells were pre-treated with various concentration of analyte thiopeptide inhibitor in 0.1% DMSO and incubated at 37 °C for 6 h. LPS-EK (30 ng/mL, InvivoGen) was subsequently added to activate the NF-kB signalling for 20 h. To quantitate SEAP activity, supernatants were harvested (300 g, 5min) and mixed with Quanti-Blue (InvivoGen) detection reagent following the manufacturer’s instructions.
(§3) Cells were assayed with cell counting kit-8 in parallel to rule out potential cytotoxicity. The plates

[4] = target: T1, IRAK4; assay: mRNA display affinity selection against IRAK4, NGS abundance; assay type: binding; parameters: acids 1-460; NP_057207.2) was purchased from Carna Biosciences; purchased Carna Biosciences (Kobe, Japan); conditions: IRAK4 selection, NGS abundance rank
[5] = target: T1, IRAK4; assay: biochemical
[6] = Serum stability assay; assay type: in vitro ADME; conditions: pH 7.6; human serum, 37 °C, LC/MS; read-out: serum stability τ1/2 (converted)
[7] = tested on: THP1-XBlue cells; assay: Cell viability with Cell Counting Kit-8
Experimental: as §1, §2, §3

[8] = tested on: HaloTag expressing HEK293H cells; assay: Chloroalkane penetration assay (CAPA); conditions: 18 h, chloroalkane tag-containing derivatives IR1-ct and IR5-ct
Text: The role of IRAK4 as a kinase acting downstream of TLR and interleukin-1 receptors to phosphorylate IRAK1 and transduce immunological signals is well-established.[37] […] Therefore, we investigated the inhibitory activity of thiopeptides IR1, 5, 8, and 11. […] We first prepared chloroalkane tag-containing derivatives, IR1-ct and IR5-ct (S.I. 5.3), and utilized them in a chloroalkane penetration assay[49] to test their cellular uptake. […]

[9] = target: T3, interleukin-1 receptor-associated …; assay: cell-based or functional assay
[10] = target: T3, interleukin-1 receptor-associated …; assay: SPR; synthetic thiopeptides and target protein; conditions in S.I. 2.10 (not shown); conditions: both partners purified
[11] = target: T4, toll-like receptor 10, extracellular …; assay: as above; conditions: both partners purified

Molecule	display P/N ratio [1]	koff [2] [s⁻¹]	kon [2] [M⁻¹ s⁻¹]	IC50 [3] [µM]	rank in pulldown(+) [4]	rank in pulldown(–) [4]	IC50 [5] [µM]	half-life at 10 µM [6] [h]	cytotoxicity (Cell Counting Kit-8) [7]	CP50 (midpoint internalization concentration) [8] [µM]	koff ([2]; SPR, IRAK4, read-out: koff) [s⁻¹]	kon ([2]; SPR, IRAK4, read-out: kon) [M⁻¹ s⁻¹]	cytotoxicity (Cell Counting Kit-8) ([7]; at the tested concentrations)	IC50, lipopolysaccharide-induced NF-κB signaling (secreted alkaline phosphatase reporter) in THP1-XBlue monocytes [9] [µM]	Kd [10] [µM]	Kd [11] [µM]
C=C1NC(=O)C(=CC)NC(=O)[C@H](Cc2c[nH]c3ccccc23)NC(=O)[C@H](Cc2c[nH]cn2)NC(=O)[C@H](Cc2c[nH]c3ccccc23)NC(=O)[C@H]([C@@H](C)O)NC(=O)[C@H]([C@@H](C)CC)NC(=O)[C@H](Cc2ccccc2)NC(=O)[C@H](CCC(N)=O)NC(=O)[C@H](CCCNC(=N)N)NC(=O)[C@H](CCCCN)NC(=O)[C@H](CCCC)NC(=O)[C@H](CO)NC(=O)[C@H](Cc2c[nH]c3ccccc23)NC(=O)c2ccc(-c3nc(C(=O)OC)cs3)nc2-c2csc1n2 [IR1] (HELM PEPTIDE1{W.S.[Nle].K.R.Q.F.I.T.W.H.W.[CC=C(N[*:1])C(=O)[*:2]]}|CHEM1{[C=C(N[*:2])c1nc(-c2nc(-c3nc(C(=O)OC)cs3)ccc2C(=O)[*:1])cs1]}$PEPTIDE1,CHEM1,1:R1-1:R1|PEPTIDE1,CHEM1,13:R2-1:R2$$$V2.0; bridges inferred)	1829	0.00054	2930	7	3	1	3.1 ± 0.3	3.9 ± 0.1	not cytotoxic	2.4	–	–	–	–	–	–
C=C1NC(=O)[C@H](CCCCN)NC(=O)[C@H](Cc2ccc(O)cc2)NC(=O)[C@H]([C@@H](C)CC)NC(=O)[C@H](CCCNC(=N)N)NC(=O)[C@H](CCCNC(=N)N)NC(=O)[C@H](CCCCN)NC(=O)[C@H](Cc2ccccc2)NC(=O)[C@H](CC(C)C)NC(=O)[C@H](CCSC)NC(=O)[C@H](CO)NC(=O)[C@H](Cc2c[nH]c3ccccc23)NC(=O)c2ccc(-c3nc(C(=O)OC)cs3)nc2-c2csc1n2 [IR5] (HELM PEPTIDE1{W.S.M.L.F.K.R.R.I.Y.K}|CHEM1{[C=C(N[*:2])c1nc(-c2nc(-c3nc(C(=O)OC)cs3)ccc2C(=O)[*:1])cs1]}$PEPTIDE1,CHEM1,1:R1-1:R1|PEPTIDE1,CHEM1,11:R2-1:R2$$$V2.0; bridges inferred)	376	–	–	7.8	1	2	5.1 ± 0.4	1.3 ± 0.02	–	14.8	0.0037	2.92e+06	not cytotoxic	–	–	–
B1	–	–	–	–	–	–	–	–	–	–	–	–	–	7.8	0.0013	–
B2	–	–	–	–	–	–	–	–	–	–	–	–	–	–	–	0.3
